Laboratory results as given in US20250171438A1 (Agios Pharmaceuticals, Inc., priority 2022, published 2025).

Biological target: T1, human PAH with the R408W mutation (Homo sapiens, UniProt P00439, R408W)
T1 construct: expressed in transfected cells
T1 sequence (P00439 1-452 R408W): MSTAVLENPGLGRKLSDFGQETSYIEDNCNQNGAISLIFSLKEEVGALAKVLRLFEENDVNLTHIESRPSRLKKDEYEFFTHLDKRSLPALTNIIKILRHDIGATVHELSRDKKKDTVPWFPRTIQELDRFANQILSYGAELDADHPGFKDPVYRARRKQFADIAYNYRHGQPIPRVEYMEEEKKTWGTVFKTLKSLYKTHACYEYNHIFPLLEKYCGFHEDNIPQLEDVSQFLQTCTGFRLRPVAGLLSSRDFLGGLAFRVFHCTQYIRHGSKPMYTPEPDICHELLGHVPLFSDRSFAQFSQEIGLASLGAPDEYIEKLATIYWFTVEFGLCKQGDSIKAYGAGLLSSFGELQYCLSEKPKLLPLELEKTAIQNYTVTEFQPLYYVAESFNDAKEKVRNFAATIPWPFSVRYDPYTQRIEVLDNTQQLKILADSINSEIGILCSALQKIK
Test: Cell Based Phenylalanine Flux Assay
Settings: A375 cells expressing human R408W PAH; 24 hrs compound incubation; 13C-Tyrosine by LC-MS; average where tested multiple times; read-out: AC50

`CC(C)(CO)c1nc(C(F)F)c(C(=O)N2CCc3[nH]cnc3[C@@H]2c2nc3c(F)cccc3s2)o1` [Example 2072, (R)-(4-(difluoromethyl)-2-(1-hydroxy-2-methylpropan-2-yl)oxazol-5-yl)(4-(4-fluorobenzo[d]thiazol-2-yl)-6,7-dihydro-1H-imidazo[4,5-c]pyridin-5(4H)-yl)methanone] and `CC(F)c1nc(C(F)F)c(C(=O)N2CCc3[nH]cnc3[C@@H]2c2nc3c(F)cccc3s2)o1` (stereo partly drawn) [Example 2076, (4-(difluoromethyl)-2-(1-fluoroethyl)oxazol-5-yl)((R)-4-(4-fluorobenzo[d]thiazol-2-yl)-6,7-dihydro-1H-imidazo[4,5-c]pyridin-5(4H)-yl)methanone] fall in the same range of AC50: 500 to 1000 nM for the first, 500 to 1000 nM for the second.

Compared with `CCn1cnnc1C(=O)N1CCc2[nH]cnc2[C@@H]1c1nc2ccccc2s1` [Example 2077, (R)-(4-(benzo[d]thiazol-2-yl)-6,7-dihydro-1H-imidazo[4,5-c]pyridin-5(4H)-yl)(4-ethyl-4H-1,2,4-triazol-3-yl)methanone], `CCn1cnnc1C(=O)N1CCc2[nH]cnc2[C@H]1c1nc2ccccc2s1` [Example 2078] is lower in AC50: over 5000 nM for the first, under 500 nM for the second.

First: O=C(c1nncn1C1CC1)N1CCc2[nH]cnc2[C@@H]1c1nc2c(F)cccc2s1 [Example 2083, (R)-(4-cyclopropyl-4H-1,2,4-triazol-3-yl)(4-(4-fluorobenzo[d]thiazol-2-yl)-6,7-dihydro-1H-imidazo[4,5-c]pyridin-5(4H)-yl)methanone]
Second: O=C(c1nncn1C1CC1)N1CCc2[nH]cnc2[C@H]1c1nc2c(F)cccc2s1 [Example 2084]
The AC50 of the first is higher: 1000 to 5000 nM for the first, 500 to 1000 nM for the second.

Compared with `CC(C)(O)c1nc(C(F)F)c(C(=O)N2CCc3[nH]cnc3[C@H]2c2nc3c(F)cccc3s2)s1` [Example 2085, (S)-(4-(difluoromethyl)-2-(2-hydroxypropan-2-yl)thiazol-5-yl)(4-(4-fluorobenzo[d]thiazol-2-yl)-6,7-dihydro-1H-imidazo[4,5-c]pyridin-5(4H)-yl)methanone], `CC(C)(O)c1nc(C(F)F)c(C(=O)N2CCc3[nH]cnc3[C@@H]2c2nc3c(F)cccc3s2)s1` [Example 2086, (R)-(4-(difluoromethyl)-2-(2-hydroxypropan-2-yl)thiazol-5-yl)(4-(4-fluorobenzo[d]thiazol-2-yl)-6,7-dihydro-1H-imidazo[4,5-c]pyridin-5(4H)-yl)methanone] is higher in AC50: under 500 nM for the first, 500 to 1000 nM for the second.

`CC(C)(O)c1nc(Cl)c(C(=O)N2CCc3[nH]cnc3[C@H]2c2nc3c(F)cccc3s2)s1` [Example 2087, (S)-(4-chloro-2-(2-hydroxypropan-2-yl)thiazol-5-yl)(4-(4-fluorobenzo[d]thiazol-2-yl)-6,7-dihydro-1H-imidazo[4,5-c]pyridin-5(4H)-yl)methanone] and `CC(C)(O)c1nc(Cl)c(C(=O)N2CCc3[nH]cnc3[C@@H]2c2nc3c(F)cccc3s2)s1` [Example 2088, (R)-(4-chloro-2-(2-hydroxypropan-2-yl)thiazol-5-yl)(4-(4-fluorobenzo[d]thiazol-2-yl)-6,7-dihydro-1H-imidazo[4,5-c]pyridin-5(4H)-yl)methanone] fall in the same range of AC50: 1000 to 5000 nM for the first, 1000 to 5000 nM for the second.

First: CC(C)(O)c1nc(Br)c(C(=O)N2CCc3[nH]cnc3[C@H]2c2nc3ccccc3s2)o1 [Example 2089]
Second: CC(C)(O)c1nc(Br)c(C(=O)N2CCc3[nH]cnc3[C@@H]2c2nc3ccccc3s2)o1 [Example 2090, (R)-(4-(benzo[d]thiazol-2-yl)-6,7-dihydro-1H-imidazo[4,5-c]pyridin-5(4H)-yl)(4-bromo-2-(2-hydroxypropan-2-yl)oxazol-5-yl)methanone]
The AC50 of the first is lower: under 500 nM for the first, 1000 to 5000 nM for the second.

First: C[C@@H](O)c1nc(C(F)F)c(C(=O)N2CCc3[nH]cnc3[C@H]2c2nc3ccccc3s2)o1 [Example 2091]
Second: C[C@@H](O)c1nc(C(F)F)c(C(=O)N2CCc3[nH]cnc3[C@@H]2c2nc3ccccc3s2)o1 [Example 2092, ((R)-4-(benzo[d]thiazol-2-yl)-6,7-dihydro-1H-imidazo[4,5-c]pyridin-5(4H)-yl)(4-(difluoromethyl)-2-((R)-1-hydroxyethyl)oxazol-5-yl)methanone]
The AC50 of the first is lower: under 500 nM for the first, 500 to 1000 nM for the second.

First: CC(C)(O)c1nc(Br)c(C(=O)N2CCc3[nH]cnc3[C@H]2c2nc3c(F)cccc3s2)s1 [Example 2093, (S)-(4-bromo-2-(2-hydroxypropan-2-yl)thiazol-5-yl)(4-(4-fluorobenzo[d]thiazol-2-yl)-6,7-dihydro-1H-imidazo[4,5-c]pyridin-5(4H)-yl)methanone]
Second: CC(C)(O)c1nc(Br)c(C(=O)N2CCc3[nH]cnc3[C@@H]2c2nc3c(F)cccc3s2)s1 [Example 2094, (R)-(4-bromo-2-(2-hydroxypropan-2-yl)thiazol-5-yl)(4-(4-fluorobenzo[d]thiazol-2-yl)-6,7-dihydro-1H-imidazo[4,5-c]pyridin-5(4H)-yl)methanone]
The AC50 of the first is lower: under 500 nM for the first, 1000 to 5000 nM for the second.

First: C[C@H](O)c1nc(C(F)F)c(C(=O)N2CCc3[nH]cnc3[C@H]2c2nc3ccccc3s2)o1 [Example 2095]
Second: C[C@H](O)c1nc(C(F)F)c(C(=O)N2CCc3[nH]cnc3[C@@H]2c2nc3ccccc3s2)o1 [Example 2096, ((R)-4-(benzo[d]thiazol-2-yl)-6,7-dihydro-1H-imidazo[4,5-c]pyridin-5(4H)-yl)(4-(difluoromethyl)-2-((S)-1-hydroxyethyl)oxazol-5-yl)methanone]
The AC50 of the first is lower: under 500 nM for the first, 1000 to 5000 nM for the second.

First: O=C(c1ccnn1C(F)(F)F)N1CCc2[nH]cnc2[C@H]1c1nc2ccccc2s1 [Example 2097]
Second: O=C(c1ccnn1C(F)(F)F)N1CCc2[nH]cnc2[C@@H]1c1nc2ccccc2s1 [Example 2098, (R)-(4-(benzo[d]thiazol-2-yl)-6,7-dihydro-1H-imidazo[4,5-c]pyridin-5(4H)-yl)(1-(trifluoromethyl)-1H-pyrazol-5-yl)methanone]
The AC50 of the first is lower: under 500 nM for the first, 500 to 1000 nM for the second.

First: O=C(c1ccnn1C(F)(F)F)N1CCc2[nH]cnc2[C@H]1c1nc2c(F)cccc2s1 [Example 2099, (S)-(4-(4-fluorobenzo[d]thiazol-2-yl)-6,7-dihydro-1H-imidazo[4,5-c]pyridin-5(4H)-yl)(1-(trifluoromethyl)-1H-pyrazol-5-yl)methanone]
Second: O=C(c1ccnn1C(F)(F)F)N1CCc2[nH]cnc2[C@@H]1c1nc2c(F)cccc2s1 [Example 2100, (R)-(4-(4-fluorobenzo[d]thiazol-2-yl)-6,7-dihydro-1H-imidazo[4,5-c]pyridin-5(4H)-yl)(1-(trifluoromethyl)-1H-pyrazol-5-yl)methanone]
The AC50 of the first is lower: under 500 nM for the first, 1000 to 5000 nM for the second.

First: Cn1ncnc1C(=O)N1CCc2[nH]cnc2[C@H]1c1nc2c(C(F)(F)F)cccc2s1 [Example 2101, (S)-(1-methyl-1H-1,2,4-triazol-5-yl)(4-(4-(trifluoromethyl)benzo[d]thiazol-2-yl)-6,7-dihydro-1H-imidazo[4,5-c]pyridin-5(4H)-yl)methanone]
Second: Cn1ncnc1C(=O)N1CCc2[nH]cnc2[C@@H]1c1nc2c(C(F)(F)F)cccc2s1 [Example 2102, (R)-(1-methyl-1H-1,2,4-triazol-5-yl)(4-(4-(trifluoromethyl)benzo[d]thiazol-2-yl)-6,7-dihydro-1H-imidazo[4,5-c]pyridin-5(4H)-yl)methanone]
The AC50 of the first is lower: 500 to 1000 nM for the first, 1000 to 5000 nM for the second.

First: CC(C)(O)c1nc(C(F)F)c(C(=O)N2CCc3[nH]cnc3[C@H]2c2nc3c(C(F)(F)F)cccc3s2)o1 [Example 2103, (S)-(4-(difluoromethyl)-2-(2-hydroxypropan-2-yl)oxazol-5-yl)(4-(4-(trifluoromethyl)benzo[d]thiazol-2-yl)-6,7-dihydro-1H-imidazo[4,5-c]pyridin-5(4H)-yl)methanone]
Second: CC(C)(O)c1nc(C(F)F)c(C(=O)N2CCc3[nH]cnc3[C@@H]2c2nc3c(C(F)(F)F)cccc3s2)o1 [Example 2104, (R)-(4-(difluoromethyl)-2-(2-hydroxypropan-2-yl)oxazol-5-yl)(4-(4-(trifluoromethyl)benzo[d]thiazol-2-yl)-6,7-dihydro-1H-imidazo[4,5-c]pyridin-5(4H)-yl)methanone]
The AC50 of the first is lower: under 500 nM for the first, 500 to 1000 nM for the second.

`CC(C)(O)c1nc(C(F)F)c(C(=O)N2CCc3[nH]cnc3[C@H]2c2nc3ccccc3s2)s1` [Example 2105] and `CC(C)(O)c1nc(C(F)F)c(C(=O)N2CCc3[nH]cnc3[C@@H]2c2nc3ccccc3s2)s1` [Example 2106, (R)-(4-(benzo[d]thiazol-2-yl)-6,7-dihydro-1H-imidazo[4,5-c]pyridin-5(4H)-yl)(4-(difluoromethyl)-2-(2-hydroxypropan-2-yl)thiazol-5-yl)methanone] cannot be ordered by AC50: under 500 nM for the first, under 500 nM for the second.

First: CC(C)(O)c1nc(Br)c(C(=O)N2CCc3[nH]cnc3[C@H]2c2nc3ccccc3s2)s1 [Example 2107]
Second: CC(C)(O)c1nc(Br)c(C(=O)N2CCc3[nH]cnc3[C@@H]2c2nc3ccccc3s2)s1 [Example 2108, (R)-(4-(benzo[d]thiazol-2-yl)-6,7-dihydro-1H-imidazo[4,5-c]pyridin-5(4H)-yl)(4-bromo-2-(2-hydroxypropan-2-yl)thiazol-5-yl)methanone]
The AC50 of the first is lower: under 500 nM for the first, 1000 to 5000 nM for the second.

In the case of `C[C@@H](O)c1nc(C(F)F)c(C(=O)N2CCc3[nH]cnc3[C@H]2c2nc3c(C(F)(F)F)cccc3s2)o1` [Example 2109, (4-(difluoromethyl)-2-((R)-1-hydroxyethyl)oxazol-5-yl) ((S)-4-(4-(trifluoromethyl)benzo[d]thiazol-2-yl)-6,7-dihydro-1H-imidazo[4,5-c]pyridin-5(4H)-yl)methanone], the AC50 is reported as under 500 nM.
